Experimental data published in publication PMC8659006 (Molecules, 2021).
≈ marks a conversion by molar mass, not a printed value. Like-named read-outs stand apart in the source and are kept apart here. Where no end group is shown, it is not given here.

Key:
[1] = system: ETEC K88; assay: MIC, microbroth dilution; format: cell-based, Enterotoxigenic Escherichia coli; details: micro-dilution in MH broth, 37 °C, 12 h, three independent replicates
Method: (§1) The reference strains P. aeruginosa 337005, S. aureus 1882 and ETEC K88 were cultivated at 37 °C for 12 h. […] Then, 180 µL MH broth per well were added to the microtiter plate (Corning, Corning, NY, USA), and then 2 µL of the diluted bacterial solution was dispensed into each well. Peptides were then serially diluted with Milli-Q water, and 20 µL dilutions were added to the wells. Then, 2 µL Milli-Q water instead of 2 µL diluted bacterial solution was used as a blank control, and 20 µL Milli-Q water instead of 20 µL peptide dilution was used as a growth control. After culturing for 12 h at 37 °C, the MIC of the reference strain was observed, and the experiment was performed in three independent replicates.

[2] = system: P.aeruginosa 337005; format: cell-based, Pseudomonas aeruginosa
Method: as §1

[3] = system: P. aeruginosa 337005, S. aureus 1882 and ETEC K88; format: cell-based
Method: as §1

[4] = system: S. aureus 1882; format: cell-based, Staphylococcus aureus
Method: as §1

[5] = system: human erythrocytes; details: 90 µg/mL; cited from earlier work
Source text: The low hemolytic activity of antimicrobial peptides on mammalian red blood cells is very important in clinical applications.

[6] = system: ETEC K88; assay: Thermal stability, antibacterial activity by inhibition zone; format: physicochemical, Enterotoxigenic Escherichia coli; details: for Antimicrobial activity after heat treatment: n = 3
Method: (§2) ETEC K88 was used as a reference strain. […] The experiment was performed in three independent replicates.
(§3) The reference strain was ETEC K88.

[7] = system: ETEC K88; assay: Scanning electron microscopy of treated bacteria; format: cell-based, Enterotoxigenic Escherichia coli
Method: Scanning electron microscopy (SEM) was used to observe the damage of CLP to bacterial cell membranes. ETEC K88 was incubated at 37 °C for 12 h and then diluted with PBS to 5 × 10^5 CFU/mL. […] The CLP-treated ETEC K88 was washed with PBS and treated with 2.5% glutaraldehyde overnight. After dehydrating with alcohol and drying for gold coating, the samples were imaged by Quanta 200 (FEI).

[8] = system: ETEC K88; assay: Inhibition zone, Kirby–Bauer diffusion method; format: cell-based, Enterotoxigenic Escherichia coli; details: 50 µL on filter disk, 37 °C, 12 h, compared to PBS control and SUMO-TEV-CLP, n = 3
Method: as §2

[9] = system: ETEC K88; assay: Propidium iodide uptake (membrane permeabilization); format: cell-based, Enterotoxigenic Escherichia coli; details: 100% = 0.05% SDS, average of 3 replicates
Method: PI can stain DNA, but cannot penetrate the complete cell membrane. Therefore, the fluorescence intensity of PI is positively correlated with the degree of cell membrane damage. The reference strain ETEC K88 was cultured at 37 °C for 12 h, and then diluted to 5 × 10^5 CFU/mL. Then, 10 µg/mL PI (Thermo Fisher, Waltham, MH, USA) was added to the diluted bacterial solution. […] The fluorescence intensity was measured using a microplate reader (Synergy H1, Bio Tek, Winooski, VT, USA) at the excitation wavelength and emission wavelength of 535 nm and 617 nm, respectively. During the continued 120 min reaction, the fluorescence values were monitored every 10 min. The PBS was a negative control, and 0.05% SDS was a positive control.

[10] = system: ETEC K88; assay: pH stability, antibacterial activity by inhibition zone; format: physicochemical, Enterotoxigenic Escherichia coli; details: pH 4.0 to 9.0, 2 h, n = 3
Method: as §2, §3

[11] = micro-dilution in MH broth, 37 °C, 12 h, three independent replicates
[12] = range over P. aeruginosa 337005, S. aureus 1882, ETEC K88

**Q.** With CC[C@H](C)[C@H](NC(=O)[C@H](CCCCN)NC(=O)[C@H](CCC(=O)O)NC(=O)[C@H](CCCCN)NC(=O)[C@H](CO)NC(=O)[C@H](CCCCN)NC(=O)[C@H](CCCNC(=N)N)NC(=O)[C@H](Cc1ccccc1)NC(=O)[C@H](Cc1ccccc1)NC(=O)[C@H](CC(=O)O)NC(=O)CNC(=O)[C@H](CC(C)C)NC(=O)[C@@H](N)CC(C)C)C(=O)NCC(=O)N[C@@H](CCCCN)C(=O)N[C@@H](CCC(=O)O)C(=O)N[C@@H](Cc1ccccc1)C(=O)N[C@@H](CCCCN)C(=O)N[C@@H](CCCNC(=N)N)C(=O)N[C@H](C(=O)N[C@H](C(=O)N[C@@H](CCC(N)=O)C(=O)N[C@@H](CCCNC(=N)N)C(=O)N[C@H](C(=O)N[C@@H](CCCCN)C(=O)N[C@@H](CC(=O)O)C(=O)N[C@@H](Cc1ccccc1)C(=O)N[C@@H](CC(C)C)C(=O)N[C@@H](CCCNC(=N)N)C(=O)N[C@@H](CC(N)=O)C(=O)N[C@@H](CC(C)C)C(=O)N[C@H](C(=O)N1CCC[C@H]1C(=O)N[C@@H](CCCNC(=N)N)C(=O)N[C@H](C(=O)N[C@@H](CCC(=O)O)C(=O)N[C@@H](CO)C(=O)O)[C@@H](C)O)C(C)C)[C@@H](C)CC)C(C)C)[C@@H](C)CC [LL37] as the molecule, how does the MIC [1] read?
**A.** 16 µg/mL (≈ 3.56 µM)

**Q.** And the MIC [2, 11]?
**A.** 32 µg/mL (≈ 7.12 µM)

**Q.** What about the “MICs for all the three reference strains (range)” value [3, 12] of the same molecule?
**A.** 16 to 32 µg/mL

**Q.** What about the MIC [4, 11] of the same molecule?
**A.** 32 µg/mL (≈ 7.12 µM)

**Q.** What about the Hemolysis [5] of the same molecule?
**A.** about 30%

**Q.** Which results are given for “KWKLFKKIIGKEFKRIVQRIKDFLRNLVPRTERKDVT [rCLP]”?
**A.** Antimicrobial activity after heat treatment ([6]; 70 °C for 30 min): almost completely retained; Antimicrobial activity after heat treatment ([6]; temperatures above 70 °C (up to 100 °C), 30 min): significantly reduced the activity; Membrane morphology by SEM [7]: damaged the integrity of the bacterial cell membrane; Inhibition zone against ETEC K88 [8]: significantly inhibited the growth; MIC ([2]; 337005, 12 h): 2 µg/mL; MICs for all the three reference strains (range) ([3]; 12 h): 2 to 8 µg/mL; Increase of PI fluorescence uptake ([9]; 0.5 × MIC (1 µg/mL), 50 min): 16.0%; Increase of PI fluorescence uptake ([9]; 0.5 × MIC (1 µg/mL), 120 min): 51.5%; Increase of PI fluorescence uptake ([9]; 2 × MIC (4 µg/mL), 50 min): 83.3%; Increase of PI fluorescence uptake ([9]; 2 × MIC (4 µg/mL), 120 min): 97.0%; MIC ([4]; 1882, 12 h): 8 µg/mL; Activity maintained throughout pH range [10]: more than 74.8%

**Q.** What does the source list for “KWKLFKKIIGKEFKRIVQRIKDFLRNLVPRTERKDVT [sCLP]”?
**A.** Stability compared with recombinant CLP ([6]; same temperature, pH value and enzyme treatment): almost the same stability; MIC ([2]; 337005, 12 h): 2 µg/mL; MIC ([4]; 1882, 12 h): 8 µg/mL

**Q.** For RKDVY [TP5], which “MICs for all the three reference strains (range)” value [3, 12] is on record?
**A.** over 512 µg/mL
